# Patent US20120219500A1, “DIAGNOSTIC AGENT FOR INFECTIOUS DISEASES” (FUJIFILM RI PHARMA CO., LTD., priority 2009, published 2012)
# Read-outs that look alike come from different tables or passages of the source.
# Experiments:
# [1] = format: in vivo
# [2] = test system: Bacteroides fragilis; assay: in vitro uptake of radionuclide-labeled nitroimidazole derivatives (gamma counter); format: cell-based; details: for uptake by obligate anaerobes compared with facultative anaerobes: 26 to 37 KBq radiolabeled derivative, anaerobic, 37° C., rate of uptake per 10^8 CFU (FIGS. 3-6)
# [3] = test system: attenuated Mycobacterium bovis (BCG, ATCC35734); format: cell-based; details: anaerobic, 37° C.
# [4] = test system: E.coli (ATCC25922); assay: in vitro uptake of nitroimidazole derivative under anaerobic environment (absorbance of supernatant); format: cell-based; details: 100 μM metronidazole, 37° C., rate of uptake per 10^8 CFU (FIG. 1)
# [5] = test system: Bacteroides fragilis (ATCC25285); assay: as above; format: cell-based; details: 37° C.
# [6] = rat subcutaneous infection model, non-infected skin site; format: in vivo; details: SD rat, i.v. 6.5 hours before blood collection
# Method: An in vivo assay was performed using a rat subcutaneous infection model. As the nitroimidazole derivative, Compound 1 or Compound 2 was used. As the microorganism, two strains of Bacteroides fragilis (ATCC25285, NCTC10581), which is susceptible to metronidazole, or E.coli (ATCC25922), which is not susceptible to metronidazole, was used. A 6-week-old male SD rat was administered with 5×10^9 cfu/0.1 ml bacteria suspended in physiological saline subcutaneously into the left thigh, and then served for evaluation four days later. Approximately 0.74 MBq of Compound 1 or Compound 2 was administered via the vena jugularis externa, and three hours later, blood was collected and tissues were excised. Also, for evaluation of inflammation in the infection model, approximately 0.15 MBq of [^67Ga]gallium citrate (FUJIFILM RI Pharma Co., Ltd.), which is a radioactive diagnostic agent for inflammation, was administered via the vena jugularis externa 6.5 hours before blood collection. […] Radioactivity (cpm) of each of ^67Ga and ^125I was measured in blood, in the infected skin site, and in the non-infection site on the skin. Radioactivity of ^125I was measured after attenuating the radioactivity of ^67Ga. The amount accumulated in each tissue and % ID/g (the ratio of radioactivity per tissue weight relative to the radioactivity administered) were calculated.
# [7] = test system: Bacteroides fragilis (ATCC25285, NCTC10581); assay: rat subcutaneous infection model, infected skin site; format: in vivo; details: SD rat, i.v. 6.5 hours before blood collection
# Method: (§1) An in vivo assay was performed using a rat subcutaneous infection model. As the nitroimidazole derivative, Compound 1 or Compound 2 was used. As the microorganism, two strains of Bacteroides fragilis (ATCC25285, NCTC10581), which is susceptible to metronidazole, or E.coli (ATCC25922), which is not susceptible to metronidazole, was used. A 6-week-old male SD rat was administered with 5×10^9 cfu/0.1 ml bacteria suspended in physiological saline subcutaneously into the left thigh, and then served for evaluation four days later. Approximately 0.74 MBq of Compound 1 or Compound 2 was administered via the vena jugularis externa, and three hours later, blood was collected and tissues were excised. Also, for evaluation of inflammation in the infection model, approximately 0.15 MBq of [^67Ga]gallium citrate (FUJIFILM RI Pharma Co., Ltd.), which is a radioactive diagnostic agent for inflammation, was administered via the vena jugularis externa 6.5 hours before blood collection. The viable bacteria in the infected tissue was confirmed by smearing a part of the infected skin tissue on a medium and culturing it. Radioactivity (cpm) of each of ^67Ga and ^125I was measured in blood, in the infected skin site, and in the non-infection site on the skin. Radioactivity of ^125I was measured after attenuating the radioactivity of ^67Ga. The amount accumulated in each tissue and % ID/g (the ratio of radioactivity per tissue weight relative to the radioactivity administered) were calculated.
# [8] = test system: E.coli (ATCC25922); assay: as above; format: in vivo; details: SD rat, i.v. 6.5 hours before blood collection
# Method: as §1
# [9] = approx. 0.74 MBq i.v., three hours later
compound,measurement,setting,value
"Cc1ncc([N+](=O)[O-])n1CCNC(=O)c1cccc(I)c1 [Compound 1, [^125I]N1-[2-(2-methyl-5-nitro-1H-1-imidazolyl)ethyl]-3-iodobenzamide]",amount accumulated in the inflammatory skin site/blood,[1]; [9],0.85±0.25
same,uptake by obligate anaerobes compared with facultative anaerobes,[2],taken up in a greater amount by obligate anaerobes than by facultative anaerobes
"O=C(NCCn1ccnc1[N+](=O)[O-])c1cccc(I)c1 [Compound 2, N1-[2-(2-nitro-1H-1-imidazolyl)ethyl]-3-iodobenzamide]",amount accumulated in the inflammatory skin site/blood,[1]; [9],0.73±0.11
same,uptake by BCG compared with E.coli,"[3]; Compound 2 0.1 mM, rate of uptake per 10^7 CFU (FIG. 9)",clearly taken up in a greater amount by nitroimidazole derivative susceptible BCG than by non-nitroimidazole derivative susceptible E.coli
same,uptake by obligate anaerobes compared with facultative anaerobes,[2],taken up in a greater amount by obligate anaerobes than by facultative anaerobes
"Cc1ncc([N+](=O)[O-])n1CCO [Metronidazole, metronidazole]",uptake by the facultative anaerobe E.coli,[4],taken up in little amount
same,uptake by the obligate anaerobe Bacteroides fragilis,"[5]; 100 μM metronidazole, rate of uptake per 10^8 CFU (FIG. 1)",taken up in a large amount
"O=[N+]([O-])c1nccn1CC(O)CF (centres unmarked) [[^19F]FMISO, fluoromisonidazole]",uptake by acid-fast bacteria compared with E.coli,"[3]; [^19F]FMISO 0.09 mM, E.coli data from Example 1 (FIG. 10)",taken up in a greater amount by nitroimidazole derivative susceptible Mycobacterium tuberculosis in the resting stage of division than by nitroimidazole derivative non-susceptible E.coli
same,uptake by obligate anaerobes compared with facultative anaerobes,"[5]; 70 μM [^19F]FMISO, B.fragilis vs E.coli (FIG. 2)",taken up in a greater amount by obligate anaerobes than by facultative anaerobes
O=C([O-])CC(O)(CC(=O)[O-])C(=O)[O-].[67Ga+3] [[^67Ga]gallium citrate],amount accumulated in the inflammatory skin site/blood,"[1]; rat, in vivo, iv",1.61±0.16
same,amount accumulated in the non-infected skin site/blood,[6],0.41±0.06
same,amount accumulated in the infected skin site/blood,[7]; Bacteroides fragilis (ATCC25285),1.75 ±0.2
same,amount accumulated in the infected skin site/blood,[7]; Bacteroides fragilis (NCTC10581),1.89±0.4
same,amount accumulated in the infected skin site/blood,[8],1.73±0.7
[^67Ga] Ga-DOTA-(metronidazole)2 [Compound 3],uptake by obligate anaerobes compared with facultative anaerobes,[2],taken up in a greater amount by obligate anaerobes than by facultative anaerobes
same,rate of uptake versus number of viable obligate anaerobes,"[2]; 37° C. for 120 minutes, 0.43×10^8 to 6.75×10^8 CFU/mL viable Bacteroides fragilis (FIG. 7)",increased in a manner correlated with the number of viable obligate anaerobes
fluorine-18-labeled fluoromisonidazole [[^18F]FMISO],uptake by obligate anaerobes compared with facultative anaerobes,[2],taken up in a greater amount by obligate anaerobes than by facultative anaerobes
